In PMC12028158, “Synthesis and In Vitro Evaluation of the Anticancer Effect of Novel Phosphonium Vindoline Derivatives” (International Journal of Molecular Sciences, 2025):
Where two headings read alike, the source gives them in different places.

Experiments:
Assay type in all cases: cell-based
CCRF-CEM = assay: NCI60 five-dose screen; settings: Homo sapiens
HL-60(TB) = assay: NCI60 five-dose screen; settings: Homo sapiens
MOLT-4 = assay: NCI60 five-dose screen; settings: Homo sapiens
RPMI-8226 = assay: NCI60 five-dose screen; settings: Homo sapiens
EKVX [1] = assay: NCI60 five-dose screen; settings: Homo sapiens
HCT-15 = assay: NCI60 five-dose screen; settings: Homo sapiens
SF-539 = assay: NCI60 five-dose screen; settings: Homo sapiens
U251 = assay: NCI60 five-dose screen; settings: Homo sapiens
MALME-3M = assay: NCI60 five-dose screen; settings: Homo sapiens
M14 = assay: NCI60 five-dose screen; settings: Homo sapiens
SK-MEL-28 = assay: NCI60 five-dose screen; settings: Homo sapiens
OVCAR-4 = assay: NCI60 five-dose screen; settings: Homo sapiens
OVCAR-5 = assay: NCI60 five-dose screen; settings: Homo sapiens
OVCAR-8 = assay: NCI60 five-dose screen; settings: Homo sapiens
NCI/ADR-RES = assay: NCI60 five-dose screen; settings: Homo sapiens
786-0 [2] = assay: NCI60 five-dose screen; settings: Homo sapiens
ACHN = assay: NCI60 five-dose screen; settings: Homo sapiens
RXF 393 [3] = assay: NCI60 five-dose screen; settings: Homo sapiens
TK-10 [4] = assay: NCI60 five-dose screen; settings: Homo sapiens
PC-3 [5] = assay: NCI60 five-dose screen; settings: Homo sapiens
MCF7 = assay: NCI60 five-dose screen; settings: Homo sapiens
BT-549 = assay: NCI60 five-dose screen; settings: Homo sapiens
[6] = test system: Non-small Cell Lung Cancer panel; assay: NCI60 five-dose screen, panel mean; settings: Homo sapiens
Melanoma panel = assay: NCI60 five-dose screen, panel mean; settings: Homo sapiens
Ovarian Cancer panel = assay: NCI60 five-dose screen, panel mean; settings: Homo sapiens
Renal Cancer panel = assay: NCI60 five-dose screen, panel mean; settings: Homo sapiens
K-562 = assay: NCI60 one-dose screen; settings: Homo sapiens
A549/ATCC = assay: NCI60 one-dose screen; settings: Homo sapiens
EKVX [7] = assay: NCI60 one-dose screen; settings: Homo sapiens, read-out: Growth percent
NCI-H23 = assay: NCI60 one-dose screen; settings: Homo sapiens
NCI-H322M = assay: NCI60 one-dose screen; settings: Homo sapiens, read-out: Growth percent
NCI-H460 = assay: NCI60 one-dose screen; settings: Homo sapiens
NCI-H522 = assay: NCI60 one-dose screen; settings: Homo sapiens
COLO 205 = assay: NCI60 one-dose screen; settings: Homo sapiens
KM12 = assay: NCI60 one-dose screen; settings: Homo sapiens
SNB-19 = assay: NCI60 one-dose screen; settings: Homo sapiens
LOX IMVI = assay: NCI60 one-dose screen; settings: Homo sapiens, read-out: Growth percent
MDA-MB-435 = assay: NCI60 one-dose screen; settings: Homo sapiens
UACC-62 = assay: NCI60 one-dose screen; settings: Homo sapiens
OVCAR-3 = assay: NCI60 one-dose screen; settings: Homo sapiens
SK-OV-3 = assay: NCI60 one-dose screen; settings: Homo sapiens
786-0 [8] = assay: NCI60 one-dose screen; settings: Homo sapiens
RXF 393 [9] = assay: NCI60 one-dose screen; settings: Homo sapiens
SN12C = assay: NCI60 one-dose screen; settings: Homo sapiens, read-out: Growth percent
TK-10 [10] = assay: NCI60 one-dose screen; settings: Homo sapiens
PC-3 [11] = assay: NCI60 one-dose screen; settings: Homo sapiens
DU-145 = assay: NCI60 one-dose screen; settings: Homo sapiens
MDA-MB-468 = assay: NCI60 one-dose screen; settings: Homo sapiens

CC[C@]12C=CCN3CC[C@@]4(c5ccc(OC)cc5N(C)[C@H]4[C@@](O)(C(=O)OC)[C@@H]1OC(=O)CCC[P+](c1ccccc1)(c1ccccc1)c1ccccc1OC)[C@@H]32 [9f]
GI50 (CCRF-CEM): 0.256 µM | GI50 (HL-60(TB); HL-60): 0.17 µM | GI50 (MOLT-4; MOLT-4): 0.419 µM | GI50 (RPMI-8226; RPMI-8226): 0.106 µM | GI50 (EKVX [1]): 1.22 µM | GI50 (HCT-15; HCT-15): 9.07 µM | GI50 (SF-539; SF-539): 0.434 µM | GI50 (U251; U-251): 0.248 µM | GI50 (MALME-3M; Malme-3M): 0.295 µM | GI50 (M14; M14): 1.06 µM | GI50 (SK-MEL-28; SK-MEL-28): 0.506 µM | GI50 (OVCAR-4; OVCAR-4): 0.54 µM | GI50 (OVCAR-5; OVCAR-5): 0.735 µM | GI50 (OVCAR-8; OVCAR-8): 0.79 µM | GI50 (NCI/ADR-RES): 26.1 µM | GI50 (786-0 [2]; 786-0): 1.98 µM | GI50 (ACHN): 4.58 µM | GI50 (RXF 393 [3]; RXF 393): 0.247 µM | GI50 (TK-10 [4]; TK-10): 1.94 µM | GI50 (PC-3 [5]; PC-3): 0.268 µM | GI50 (MCF7; MCF7): 0.288 µM | GI50 (BT-549; BT-549): 0.262 µM | GI50 ([6]; read-out: Mean GI50): 1.05 µM | GI50 (Melanoma panel; read-out: Mean GI50): 0.49 µM | GI50 (Ovarian Cancer panel; read-out: Mean GI50): 4.2 µM | GI50 (Renal Cancer panel; read-out: Mean GI50): 3.08 µM | activity at 10 µM (K-562; K562, read-out: Growth percent): -43.4% | activity at 10 µM (A549/ATCC; A549, read-out: Growth percent): 20.1% | activity at 10 µM (EKVX [7]): -8.21% | activity at 10 µM (NCI-H23; NCI-H23, read-out: Growth percent): -57.8% | activity at 10 µM (NCI-H322M): 25.9% | activity at 10 µM (NCI-H460; NCI-H460, read-out: Growth percent): -26.9% | activity at 10 µM (NCI-H522; NCI-H522, read-out: Growth percent): -70.4% | activity at 10 µM (COLO 205; COLO 205, read-out: Growth percent): -90.7% | activity at 10 µM (KM12; KM12, read-out: Growth percent): -93.4% | activity at 10 µM (SNB-19; SNB-19, read-out: Growth percent): -95.2% | activity at 10 µM (LOX IMVI): -95.7% | activity at 10 µM (MDA-MB-435; MDA-MB-435, read-out: Growth percent): -73.7% | activity at 10 µM (UACC-62; UACC-62, read-out: Growth percent): -73.2% | activity at 10 µM (OVCAR-3; OVCAR-3, read-out: Growth percent): -75% | activity at 10 µM (SK-OV-3; SK-OV-3, read-out: Growth percent): -33.4% | activity at 10 µM (786-0 [8]; 786-0, read-out: Growth percent): -74.1% | activity at 10 µM (RXF 393 [9]; RXF 393, read-out: Growth percent): -83.6% | activity at 10 µM (SN12C): -80.6% | activity at 10 µM (TK-10 [10]; TK-10, read-out: Growth percent): -88.5% | activity at 10 µM (PC-3 [11]; PC-3, read-out: Growth percent): 4.74% | activity at 10 µM (DU-145; DU-145, read-out: Growth percent): 1.94% | activity at 10 µM (MDA-MB-468; MDA-MB-468, read-out: Growth percent): -84.6%

CC[C@]12C=CCN3CC[C@@]4(c5ccc(OC)cc5N(C)[C@H]4[C@@](O)(C(=O)OC)[C@@H]1OC(=O)CCCC[P+](c1ccc(F)cc1)(c1ccc(F)cc1)c1ccc(F)cc1)[C@@H]32 [10c]
GI50 (CCRF-CEM; Leukemia, read-out: GI50): 13.6 µM | GI50 (HL-60(TB); HL-60, HL-60(TB), Leukemia, read-out: GI50): 2.11 µM | GI50 (MOLT-4; MOLT-4, Leukemia, read-out: GI50): 14.7 µM | GI50 (RPMI-8226; RPMI-8226, Leukemia, read-out: GI50): 2.97 µM | GI50 (EKVX [1]; Non-small Cell Lung Cancer, read-out: GI50): 21 µM | GI50 (HCT-15; HCT-15, Colon Cancer, read-out: GI50): > 100 µM | GI50 (SF-539; SF-539, CNS Cancer, read-out: GI50): 21.9 µM | GI50 (U251; U-251, U251, CNS Cancer, read-out: GI50): 10.7 µM | GI50 (MALME-3M; MALME-3M, Melanoma, read-out: GI50): 13.5 µM | GI50 (M14; M14, Melanoma, read-out: GI50): 14.7 µM | GI50 (SK-MEL-28; SK-MEL-28, Melanoma, read-out: GI50): 8.28 µM | GI50 (OVCAR-4; OVCAR-4, Ovarian Cancer, read-out: GI50): 25.1 µM | GI50 (OVCAR-5; OVCAR-5, Ovarian Cancer, read-out: GI50): 29.1 µM | GI50 (OVCAR-8; OVCAR-8, Ovarian Cancer, read-out: GI50): 29.4 µM | GI50 (NCI/ADR-RES; Ovarian Cancer, read-out: GI50): > 100 µM | GI50 (786-0 [2]; 786-0, Renal Cancer, read-out: GI50): 34.1 µM | GI50 (ACHN; Renal Cancer, read-out: GI50): > 100 µM | GI50 (RXF 393 [3]; RXF 393, Renal Cancer, read-out: GI50): 13.3 µM | GI50 (TK-10 [4]; TK-10, Renal Cancer, read-out: GI50): 21.2 µM | GI50 (PC-3 [5]; PC-3, Prostate Cancer, read-out: GI50): 16.4 µM | GI50 (MCF7; MCF7, MCF7, Breast Cancer, read-out: GI50): 11.5 µM | GI50 (BT-549; BT-549, Breast Cancer, read-out: GI50): 12.9 µM | GI50 ([6]; mean over Non-small Cell Lung Cancer panel, read-out: GI50 Mean): 24.3 µM | GI50 (Melanoma panel; mean over Melanoma panel, read-out: GI50 Mean): 12.5 µM | GI50 (Ovarian Cancer panel; mean over Ovarian Cancer panel, read-out: GI50 Mean): 32.5 µM | GI50 (Renal Cancer panel; mean over Renal Cancer panel, read-out: GI50 Mean): 56.7 µM | activity at 10 µM (K-562; K562, K-562, 10 μM, one-dose, read-out: Growth percent): 17.1% | activity at 10 µM (A549/ATCC; A549/ATCC, 10 μM, one-dose, read-out: Growth percent): 37.5% | activity at 10 µM (EKVX [7]; 10 μM, one-dose): 53% | activity at 10 µM (NCI-H23; NCI-H23, 10 μM, one-dose, read-out: Growth percent): 23.6% | activity at 10 µM (NCI-H322M; 10 μM, one-dose): 52.9% | activity at 10 µM (NCI-H460; NCI-H460, 10 μM, one-dose, read-out: Growth percent): 20.3% | activity at 10 µM (NCI-H522; NCI-H522, 10 μM, one-dose, read-out: Growth percent): -11.6% | activity at 10 µM (COLO 205; COLO 205, 10 μM, one-dose, read-out: Growth percent): -43.4% | activity at 10 µM (KM12; KM12, 10 μM, one-dose, read-out: Growth percent): 16% | activity at 10 µM (SNB-19; SNB-19, 10 μM, one-dose, read-out: Growth percent): 6.61% | activity at 10 µM (LOX IMVI; 10 μM, one-dose): 25% | activity at 10 µM (MDA-MB-435; MDA-MB-435, 10 μM, one-dose, read-out: Growth percent): -16% | activity at 10 µM (UACC-62; UACC-62, 10 μM, one-dose, read-out: Growth percent): -69.6% | activity at 10 µM (OVCAR-3; OVCAR-3, 10 μM, one-dose, read-out: Growth percent): 12.6% | activity at 10 µM (SK-OV-3; SK-OV-3, 10 μM, one-dose, read-out: Growth percent): 41.4% | activity at 10 µM (786-0 [8]; 786-0, 10 μM, one-dose, read-out: Growth percent): 87% | activity at 10 µM (RXF 393 [9]; RXF 393, 10 μM, one-dose, read-out: Growth percent): -9.93% | activity at 10 µM (SN12C; 10 μM, one-dose): 10.6% | activity at 10 µM (TK-10 [10]; TK-10, 10 μM, one-dose, read-out: Growth percent): 70.2% | activity at 10 µM (PC-3 [11]; PC-3, 10 μM, one-dose, read-out: Growth percent): 15.7% | activity at 10 µM (DU-145; DU-145, 10 μM, one-dose, read-out: Growth percent): 36.4% | activity at 10 µM (MDA-MB-468; MDA-MB-468, 10 μM, one-dose, read-out: Growth percent): -74.6%
